Laboratory results from patent US20170275302A1, “INHIBITORS OF THE RENAL OUTER MEDULLARY POTASSIUM CHANNEL” (Merck Sharp & Dohme Corp., priority 2014, published 2017).

target: T1, hROMK (hKir1.1) (Homo sapiens, UniProt P48048); test: Thallium Flux Assay (ROMK channel functional thallium flux assay, FLIPR-Tetra); format: cell-based; details: HEK293 cells stably expressing hROMK (hKir1.1); FluxOR thallium flux, 30 min compound incubation; concentration inhibiting 50% of ROMK thallium flux signal
T1 construct: expressed in transfected cells
T1 sequence (P48048 1-391): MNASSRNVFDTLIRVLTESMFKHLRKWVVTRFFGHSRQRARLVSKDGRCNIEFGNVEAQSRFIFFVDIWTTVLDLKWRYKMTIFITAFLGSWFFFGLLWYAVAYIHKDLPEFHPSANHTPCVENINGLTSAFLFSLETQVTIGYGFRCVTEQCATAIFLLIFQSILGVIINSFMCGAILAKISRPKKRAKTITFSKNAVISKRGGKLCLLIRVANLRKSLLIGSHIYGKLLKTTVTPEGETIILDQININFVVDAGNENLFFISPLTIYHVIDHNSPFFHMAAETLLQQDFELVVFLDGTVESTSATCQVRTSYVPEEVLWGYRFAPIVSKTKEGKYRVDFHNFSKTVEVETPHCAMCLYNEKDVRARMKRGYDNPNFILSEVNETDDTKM
Procedure: The following Thallium Flux Assay was performed on each of the final product compounds in the Examples.
HEK293 cells stably expressing hROMK (hKir1.1) were grown at 37° C. in a 10% CO2 humidified incubator in complete growth media: Dulbecco's Modified Eagle Medium supplemented with non-essential amino acids, Penicillin/Streptomycin/Glutamine, G418 and FBS. At >80% confluency, the media was aspirated from the flask and rinsed with 10 mL calcium/magnesium-free phosphate buffered saline (PBS). 5 mL of 1× trypsin (prepared in Ca/Mg Free PBS) was added to T-225 flask and the flask was returned to 37° C./CO2 incubator for 2-3 minutes. To dislodge the cells, the side of the flask was gently banged with one's hand. The cells were completely titrated and then the cells were transferred to 25 mL complete media, centrifuged at 1,500 rpm for 6 min followed by resuspension in complete growth media, and the cell concentration was determined. For typical re-seeding, 4E6 cells/T-225 flask will attain >80% confluency in 4 days. Under ideal growth conditions and appropriate tissue culture practices, this cell line is stable for 40-45 passages.
Compound Buffer (per microplate): 20 mL Probenecid/Assay Buffer; 0.3 mM ouabain (10 mM ouabain in water can be stored in amber bottle/aluminum foil at room temperature); Test compound
Stimulant Buffer (prepared at 5× final concentration in 1× FluxOR™Chloride-Free Buffer): 7.5 mM thallium sulfate and 0.75 mM potassium sulfate (to give a final assay concentration of 3 mM Thallium/0.3 mM potassium). Store at 4° C. when not in use. If kept sterile, this solution is good for months.
The ROMK channel functional thallium flux assay was performed in 384 wells, using the FLIPR-Tetra instrument. HEK-hKir1.1 cells were seeded in Poly-D-Lysine microplates and kept in a 37° C.-10% CO2 incubator overnight. On the day of the experiment, the growth media was replaced with the FluxOR™ reagent loading buffer and incubated, protected from light, at ambient temperature (23-25° C.) for 90 min. The loading buffer was replaced with assay buffer±test compound followed by 30 min incubation at ambient temperature, where the thallium/potassium stimulant was added to the microplate.
• 1. Seed HEK-hKir1.1 cells (50 μl at 20,000 cells/well) in 384-well PDL coated Microplates • 2. Allow cells to adhere overnight in humidified 37° C./10% CO2 incubator • 3. Completely remove cell growth media from microplate and replace with 25 μl loading buffer • 4. Incubate Microplate at room temperature, protected form light, for 90 min • 5. Remove loading buffer and replace with 25 μl 1× Assay Buffer±test compound. • 6. Incubate microplate at room temperature, protected from light, for 30 min • 7. At FLIPR-Tetra 384: Add stimulant (thallium/potassium) solution to microplate and monitor fluorescence. Excitation=400 nm, Emission=460 & 580 nm. Collect data for ˜10 min.
The fluorescence intensity of wells containing 3 μM of a standard control ROMK inhibitor of the present invention was used to define the ROMK-sensitive component of thallium flux. Fluorescence in the presence of test compounds was normalized to control values to provide % fluorescence change. IC50 values represent the concentration of compound that inhibited 50% of the ROMK thallium flux signal.

IC50	Structure (SMILES)
190 nM	Cc1c([C@@H](O)CN2CCC3(CC2)CCN(c2cc4cncnc4s2)C3=O)ccc2c1COC2=O [Example 36]
117 nM	Cc1c([C@@H](O)CN2CCC3(CC2)CCN(c2cc4cnccc4s2)C3=O)ccc2c1COC2=O [Example 37]
54.9 nM	Cc1c([C@@H](O)CN2CCC3(CC2)CCN(c2ccnc4c2OCO4)C3=O)ccc2c1COC2=O [Example 38, (R)-2-([1,3]dioxolo[4,5-b]pyridin-7-yl)-8-(2-hydroxy-2-(4-methyl-1-oxo-1,3-dihydroisobenzofuran-5-yl)ethyl)-2,8-diazaspiro[4.5]decan-1-one]
458 nM	Cc1c([C@@H](O)CN2CCC3(CC2)CC(=O)N(c2cn4ncnc4cn2)C3)ccc2c1COC2=O [Example 39, (R)-2-([1,2,4]triazolo[1,5-a]pyrazin-6-yl)-8-(2-hydroxy-2-(4-methyl-1-oxo-1,3-dihydroisobenzofuran-5-yl)ethyl)-2,8-diazaspiro[4.5]decan-3-one]
894 nM	Cc1c([C@@H](O)CN2CCC3(CC2)CC(=O)N(c2ccc4nc(C(F)(F)F)nn4c2)C3)ccc2c1COC2=O [Example 40]
336 nM	Cc1c([C@@H](O)CN2CCC3(CC2)CC(=O)N(c2cnn4ncccc24)C3)ccc2c1COC2=O [Example 41]
117 nM	N#Cc1ccc(C(O)CN2CCC3(CC2)CCN(c2ccc4nncn4n2)C3)nc1 (centres unmarked) [Example 42]
361 nM	N#Cc1ccc(C(O)CN2CCC3(CC2)CCN(c2ccc4nncn4n2)C3)nc1 (centres unmarked) [Example 43]
124 nM	COc1cc([C@H](O)CN2CCC3(CC2)CCN(c2ccc4nncn4n2)C3)ncc1C#N [Example 44]
45.9 nM	COc1cc([C@@H](O)CN2CCC3(CC2)CCN(c2ccc4nncn4n2)C3)ncc1C#N [Example 45, 6-(2-(2-([1,2,4]triazolo[4,3-b]pyridazin-6-yl)-2,8-diazaspiro[4.5]decan-8-yl)-1-hydroxyethyl)-4-methoxynicotinonitrile]
77 nM	Cc1nc(C(O)CN2CCC3(CC2)CCN(c2ccc4nncn4n2)C3)ccc1C#N (centres unmarked) [Example 46, 6-(2-(2-([1,2,4]triazolo[4,3-b]pyridazin-6-yl)-2,8-diazaspiro[4.5]decan-8-yl)-1-hydroxyethyl)-2-methylnicotinonitrile]
147 nM	Cc1nc(C(O)CN2CCC3(CC2)CCN(c2ccc4nncn4n2)C3)ccc1C#N (centres unmarked) [Example 47]
88.1 nM	Cc1cc(C#N)cnc1C(O)CN1CCC2(CC1)CCN(c1ccc3nncn3n1)C2 (centres unmarked) [Example 48]
208 nM	Cc1cc(C#N)cnc1C(O)CN1CCC2(CC1)CCN(c1ccc3nncn3n1)C2 (centres unmarked) [Example 49]
41.5 nM	COc1cc(C(O)CN2CCC3(CC2)CCN(c2ccc4nncn4n2)C3)ccc1C#N (centres unmarked) [Example 50]
48.7 nM	COc1cc(C(O)CN2CCC3(CC2)CCN(c2ccc4nncn4n2)C3)ccc1C#N (centres unmarked) [Example 51]
27.6 nM	COc1cc(C(O)CN2CCC3(CC2)CCN(c2ccc4nncn4n2)C3)c(Cl)cc1C#N (centres unmarked) [Example 56]
248 nM	Cc1nc(C(O)CN2CCC3(CC2)CC(=O)N(c2ccc4nncn4n2)C3)ccc1C#N (centres unmarked) [Example 57]
413 nM	COc1cc(C(O)CN2CCC3(CC2)CC(=O)N(c2ccc4nncn4n2)C3)ccc1C#N (centres unmarked) [Example 58]
412 nM	N#Cc1ccc(C(O)CN2CCC3(CC2)CC(=O)N(c2ccc4nncn4n2)C3)nc1 (centres unmarked) [Example 59]
780 nM	COc1cc([C@H](O)CN2CCC3(CC2)CC(=O)N(c2ccc4nncn4n2)C3)ncc1C#N [Example 60]

IC50	Structure (SMILES)
228 nM	COc1cc([C@@H](O)CN2CCC3(CC2)CC(=O)N(c2ccc4nncn4n2)C3)ncc1C#N [Example 61]
129 nM	N#Cc1ccc(C(O)CN2CCC3(CCN(c4ccc5nncn5n4)CC3)C2)nc1 (centres unmarked) [Example 62]
154 nM	N#Cc1ccc(C(O)CN2CCC3(CCN(c4ccc5nncn5n4)CC3)C2)nc1 (centres unmarked) [Example 63]
91.8 nM	COc1cc([C@H](O)CN2CCC3(CCN(c4ccc5nncn5n4)CC3)C2)ncc1C#N [Example 64]
34.7 nM	Cc1cc(C#N)cnc1C(O)CN1CCC2(CCN(c3ccc4nncn4n3)CC2)C1 (centres unmarked) [Example 65, 6-(2-(8-([1,2,4]triazolo[4,3-b]pyridazin-6-yl)-2,8-diazaspiro[4.5]decan-2-yl)-1-hydroxyethyl)-5-methylnicotinonitrile]
72.8 nM	Cc1cc(C#N)cnc1C(O)CN1CCC2(CCN(c3ccc4nncn4n3)CC2)C1 (centres unmarked) [Example 66]
64.2 nM	Cc1nc(C(O)CN2CCC3(CCN(c4ccc5nncn5n4)CC3)C2)ccc1C#N (centres unmarked) [Example 67, 6-(2-(8-([1,2,4]triazolo[4,3-b]pyridazin-6-yl)-2,8-diazaspiro[4.5]decan-2-yl)-1-hydroxyethyl)-2-methylnicotinonitrile]
85.9 nM	Cc1nc(C(O)CN2CCC3(CCN(c4ccc5nncn5n4)CC3)C2)ccc1C#N (centres unmarked) [Example 68]
31 nM	Cc1c([C@@H](O)CN2CCC3(CCN(c4ccc5nncn5n4)CC3)C2)ccc2c1COC2=O [Example 70, (R)-5-(2-(8-([1,2,4]triazolo[4,3-b]pyridazin-6-yl)-2,8-diazaspiro[4.5]decan-2-yl)-1-hydroxyethyl)-4-methylisobenzofuran-1(3H)-one]
208 nM	COc1cc([C@@H](O)CN2CCC3(CC2)CCN(c2ccc4nnnn4n2)C3)ncc1C#N [Example 71, (S)-6-(1-hydroxy-2-(2-(tetrazolo[1,5-b]pyridazin-6-yl)-2,8-diazaspiro[4.5]decan-8-yl)ethyl)-4-methoxynicotinonitrile]
250 nM	COc1cc([C@@H](O)CN2CCC3(CC2)CCN(c2nn4cnnc4s2)C3)ncc1C#N [Example 72]
221 nM	COc1cc([C@@H](O)CN2CCC3(CC2)CCN(c2ccc4nncn4c2)C3)ncc1C#N [Example 73]
116 nM	Cc1c([C@@H](O)CN2CCC3(CC2)CCN(c2ccc4nncn4n2)C3=O)ccc2c1COC2=O [Example 74]
608 nM	COc1cc([C@@H](O)CN2CCC3(CC2)CCN(c2ccc4nncn4n2)C3=O)ncc1C#N [Example 75]
97.6 nM	Cc1c([C@@H](O)CN2CCC3(CCCN(c4ccc5nncn5n4)C3)CC2)ccc2c1COC2=O [Example 76]
66.4 nM	COc1cc([C@H](O)CN2CCC3(CC2)CCN(c2ccc4c(c2C)COC4=O)C3)ncc1C#N [Example 77, (R)-6-(1-hydroxy-2-(2-(4-methyl-1-oxo-1,3-dihydroisobenzofuran-5-yl)-2,8-diazaspiro[4.5]decan-8-yl)ethyl)-4-methoxynicotinonitrile]
622 nM	Cc1nc(-n2cnnn2)ccc1[C@@H](O)CN1CCC2(CC1)CCN(c1ccc3c(c1C)COC3=O)C2 [Example 78]
19 nM	Cc1c([C@@H](O)CN2CCC3(CC2)CCN(c2ccc4c(c2C)COC4=O)C3)ccc2c1COC2=O [Example 79, (R)-5-(1-hydroxy-2-(2-(4-methyl-1-oxo-1,3-dihydroisobenzofuran-5-yl)-2,8-diazaspiro[4.5]decan-8-yl)ethyl)-4-methylisobenzofuran-1(3H)-one]
91.4 nM	Cc1c([C@@H](O)CN2CCC3(CC2)CN(c2ccc4c(c2C)COC4=O)C(=O)O3)ccc2c1COC2=O [Example 81, (R)-8-(2-hydroxy-2-(4-methyl-1-oxo-1,3-dihydroisobenzofuran-5-yl)ethyl)-3-(4-methyl-1-oxo-1,3-dihydroisobenzofuran-5-yl)-1-oxa-3,8-diazaspiro[4.5]decan-2-one]
32.6 nM	Cc1c([C@@H](O)CN2CCC3(CC2)CCN(c2snc4ccccc24)C3=O)ccc2c1COC2=O [Example 82]
